Assay results reported in PubChem BioAssay (NCI).
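Interpolation was linear, between the two tested concentrations surrounding the appropriate level; five concentrations were tested over 48 hours in 96-well plates. GI50 is the concentration that inhibits growth by half. TGI is the concentration that stops growth completely.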

Legend:
Test in all cases: DTP human tumour cell line panel, 48 h
MOLT-4 leukemia = tested on: MOLT-4 leukemia
SF-295 CNS = tested on: SF-295 CNS
COLO 205 colon = tested on: COLO 205 colon
OVCAR-4 ovarian = tested on: OVCAR-4 ovarian
U251 CNS = tested on: U251 CNS
LOX IMVI melanoma = tested on: LOX IMVI melanoma
SW-620 colon = tested on: SW-620 colon
MALME-3M melanoma = tested on: MALME-3M melanoma
CCRF-CEM leukemia = tested on: CCRF-CEM leukemia
MDA-MB-231 breast = tested on: MDA-MB-231 breast

Compound	GI50 (MOLT-4 leukemia)	TGI (MOLT-4 leukemia)	GI50 (SF-295 CNS)	TGI (SF-295 CNS)	GI50 (COLO 205 colon)	TGI (COLO 205 colon)	GI50 (OVCAR-4 ovarian)	TGI (OVCAR-4 ovarian)	GI50 (U251 CNS)	TGI (U251 CNS)	GI50 (LOX IMVI melanoma)	TGI (LOX IMVI melanoma)	GI50 (SW-620 colon)	TGI (SW-620 colon)	GI50 (MALME-3M melanoma)	TGI (MALME-3M melanoma)	GI50 (CCRF-CEM leukemia)	TGI (CCRF-CEM leukemia)	GI50 (MDA-MB-231 breast)	TGI (MDA-MB-231 breast)
[Cl-].[Dy+3].[O-]/N=C(\c1ccccc1)c1ccccn1.[O-]/N=C(\c1ccccc1)c1ccccn1.[O-]/N=C(\c1ccccc1)c1ccccn1	8.47 µM	78.7 µM	20.9 µM	68.8 µM	33.5 µM	> 100 µM	44.3 µM	> 100 µM	47.5 µM	> 100 µM	21.9 µM	54.1 µM	41.8 µM	> 100 µM	34.4 µM	> 100 µM	23.6 µM	97.4 µM	–	–
O=C1C2c3[nH]c4ccccc4c3C3CCCCCCC3C2C(=O)N1c1ccccc1 (stereo not given)	–	–	–	12.8 µM	–	28.6 µM	–	15.4 µM	–	14.9 µM	–	17.2 µM	–	29.8 µM	–	12.7 µM	–	25.6 µM	–	–
CC(C)(C)C1C=C(Sc2ccccc2)C(=O)O1 (stereo not given)	–	> 100 µM	–	> 100 µM	–	54.4 µM	–	> 100 µM	–	> 100 µM	–	> 100 µM	–	> 100 µM	–	> 100 µM	–	> 100 µM	–	–
COC(=O)/C(=N/NC(=O)C[N+](C)(C)C)C(C(=O)OC)C(=O)C(=O)Nc1ccc(F)cc1 (stereo not given)	–	> 100 µM	–	> 100 µM	–	> 100 µM	–	> 100 µM	–	> 100 µM	–	> 100 µM	–	> 100 µM	–	> 100 µM	–	> 100 µM	–	–
CC1=CC(=Nc2ccc(N(CCCl)CCCl)cc2)C=C(C)C1=O	0.377 µM	> 25.6 µM	0.626 µM	22.6 µM	1.49 µM	4.67 µM	1.56 µM	4.76 µM	1.02 µM	7.33 µM	–	–	0.816 µM	4.6 µM	1.84 µM	6.49 µM	0.187 µM	5.21 µM	2.85 µM	9.32 µM
C/C(CC(=O)Nc1ccc(C)cc1C)=N/N=C(N)N	–	> 100 µM	–	> 100 µM	–	> 100 µM	–	–	–	> 100 µM	–	> 100 µM	–	> 100 µM	–	> 100 µM	–	> 100 µM	–	–
COC(=O)c1c/c(=N\NC(=O)CC(=O)Nc2ccccc2OC)c2ccccc2o1	–	> 100 µM	–	–	–	> 100 µM	–	> 100 µM	–	> 100 µM	–	> 100 µM	–	> 100 µM	–	–	–	–	–	–
COC12C=C(C)C(CC1)CC2C(=O)O (stereo not given)	–	> 100 µM	–	> 100 µM	–	> 100 µM	–	> 100 µM	–	> 100 µM	–	> 100 µM	–	> 100 µM	–	> 100 µM	–	> 100 µM	–	–
Cc1cc2c(cc1C)[n+](=O)c(C(=O)C/C(=N/NC(=O)CC#N)C(=O)Nc1ccccc1C(F)(F)F)c(C)n2[O-]	–	> 100 µM	–	> 100 µM	–	> 100 µM	–	> 100 µM	–	> 100 µM	–	> 100 µM	–	> 100 µM	–	> 100 µM	–	> 100 µM	–	–
Cc1cccc(C)c1NC(=O)C(=O)C1C(=O)NC(=O)NC1=O	–	> 100 µM	–	> 100 µM	–	> 100 µM	–	> 100 µM	–	> 100 µM	–	> 100 µM	–	> 100 µM	–	> 100 µM	–	> 100 µM	–	–
CCC(C)c1c(Cl)nc(Cl)nc1Cl (stereo not given)	–	> 100 µM	–	42.2 µM	–	–	–	46.2 µM	–	15.4 µM	–	> 100 µM	–	> 100 µM	–	> 100 µM	–	> 100 µM	–	–
COC(=O)/C=C/c1cc(OC)c(OC)c(OC)c1	–	> 100 µM	–	> 100 µM	–	> 100 µM	–	> 100 µM	–	–	–	> 100 µM	–	> 100 µM	–	> 100 µM	–	> 100 µM	–	–
COc1ccc(/C(COc2c(-c3ccccc3)oc3ccccc3c2=O)=N\O)cc1	22.9 µM	> 50 µM	–	–	12 µM	30.9 µM	37.1 µM	> 50 µM	18.9 µM	> 50 µM	12.4 µM	26.5 µM	19.5 µM	> 50 µM	–	–	37 µM	> 50 µM	18.3 µM	> 50 µM
CC1(C)OC2[C@@H](CNC(=O)NC(=O)NC(=O)CI)O[C@@H](n3cnc4c(NC(=O)Nc5ccccc5)ncnc43)[C@H]2O1 (stereo not given in full)	1.86 µM	9.28 µM	9.18 µM	19.4 µM	6.44 µM	14.5 µM	7.16 µM	21 µM	10 µM	20.4 µM	0.907 µM	1.74 µM	2.08 µM	8.13 µM	1.12 µM	2.9 µM	–	–	9.42 µM	19.4 µM
Brc1cccc(C=NC23CC4CC(CC(C4)C2)C3)c1	–	> 100 µM	–	> 100 µM	–	> 100 µM	–	> 100 µM	–	> 100 µM	–	> 100 µM	–	> 100 µM	–	> 100 µM	–	> 100 µM	–	–
COc1ccc(C2=CC3CCC2C3)cc1 (stereo not given)	–	> 100 µM	–	> 100 µM	–	> 100 µM	–	> 100 µM	–	> 100 µM	–	> 100 µM	–	> 100 µM	–	> 100 µM	–	> 100 µM	–	–
CC1=NN(C(=O)Nc2ccccc2)C(=O)C2CCC(=O)N12 (stereo not given)	–	> 100 µM	–	> 100 µM	–	> 100 µM	–	> 100 µM	–	> 100 µM	–	> 100 µM	–	> 100 µM	–	–	–	> 100 µM	–	–
CCC[CH2][Sn]1([CH2]CCC)[O]Cc2nc(C)ccc2[O]1	3.04 µM	10.7 µM	2.02 µM	3.69 µM	4.38 µM	15.9 µM	3.95 µM	17.6 µM	4.73 µM	16.7 µM	1.95 µM	3.97 µM	2.81 µM	12.1 µM	5.03 µM	14.5 µM	1.87 µM	5.01 µM	–	–
OCc1c[nH]c2ccccc12	39.1 µM	> 100 µM	19.4 µM	40.9 µM	16 µM	35.1 µM	33 µM	> 100 µM	21.9 µM	62 µM	16.2 µM	32.7 µM	17.9 µM	36.8 µM	–	–	26.9 µM	> 100 µM	14.7 µM	47.7 µM
